Reference: patent publication US20240067632A1, “WEE1 Degrading Compounds and Uses Thereof” (Bristol-Myers Squibb Company, priority 2022, published 2024)
Read-outs that look alike come from different tables or passages of the source.

What was measured:
MKN45 cells = test: MKN45 cell proliferation assay (Cell-Titer-Glo, 120 h); format: cell-based; conditions: for EC50: Homo sapiens, MKN-45, 120 h, Cell-Titer-Glo, read-out: MKN45 Cell Prolif. 120 hr (EC50); for MKN45 Cell Prolif. 120 hr (Ymin-Obs): minimal percent of DMSO control observed in the concentrations tested
Method in brief: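 Growth inhibition was read as blank-corrected Cell-Titer-Glo luminescence expressed as percent DMSO control after 120 h at 37 C, 400 cells/well. Compounds tested in triplicate as 10-point half-log series from 1 or 10 uM, 0.1% DMSO; four-parameter fit gave EC50, and lowest observed percent control was reported as Ymin-obs.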

WEE1 = target: T1, WEE1 (Homo sapiens, UniProt P30291+Q96SW2); test: WEE1-ePL degradation assay (LentiX-WEE1-ePL-GSPT1-ND cells, InCELL Hunter luminescence, 4 h); format: cell-based; conditions: 293T-LentiX WEE1-ePL cells; for DC50: read-out: 293T-LentiX WEE1-ePL Degradation 4 hr (EC50)
T1 construct: C-terminal ePL-tagged (DiscoverX, Fremont, CA) full-length WEE1 expression construct; expressed in transfected cells; host or cells: LentiX-HEK293T (Invitrogen), lentiviral transduction; co-expressing GSPT1-GN (G576N, lacking the first 158 amino acids)
Method in brief: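 Luminescent readout (InCELL Hunter, 30 min RT) of WEE1-ePL levels in transduced HEK293T cells after 4 h compound exposure at 37 °C. Dosing: 10 points, 3-fold steps, top 1 uM or 10 uM. EC50 from four-parameter logistic fit; Ymax set by DMSO.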

[1] = lower limit of the fit (0 = luciferase inhibitor, Ymax = DMSO control)
[2] = lower limit of the fit (Ymin=0 luciferase inhibitor, Ymax DMSO control)

Compound	EC50 (MKN45 cells; growth inhibition) [nM]	MKN45 Cell Prolif. 120 hr (Ymin-Obs) (MKN45 cells)	293T-LentiX WEE1-ePL Degradation 4 hr (Ymin) (WEE1; [1])	DC50 (WEE1) [nM]	EC50 (MKN45 cells) [nM]	293T-LentiX WEE1-ePL Degradation 4 hr (Ymin) (WEE1; [2])
Cc1nc(CN2CC[C@H](Oc3ccc4c(c3)CN(C3CCC(=O)NC3=O)C4=O)C2)cc2ccccc12 (stereo partly drawn) [3-(5-{[(3S)-1-[(1-methylisoquinolin-3-yl)methyl]pyrrolidin-3-yl]oxy}-1-oxo-2,3-dihydro-1H-isoindol-2-yl)piperidine-2,6-dione]	5040	50.77	47.56	31	–	–
Cc1ccc2cc(CN3C[C@@H](Oc4ccc5c(c4)CN(C4CCC(=O)NC4=O)C5=O)C[C@H]3C)ccc2n1 (stereo partly drawn) [3-(5-{[(3S,5R)-5-methyl-1-[(2-methylquinolin-6-yl)methyl]pyrrolidin-3-yl]oxy}-1-oxo-2,3-dihydro-1H-isoindol-2-yl)piperidine-2,6-dione]	> 10000	80.29	88.5	–	–	–
O=C1CCC(N2Cc3cc(O[C@H]4CCN(Cc5cc6cnccc6cn5)C4)ccc3C2=O)C(=O)N1 (stereo partly drawn) [3-(5-{[(3S)-1-[(2,6-naphthyridin-3-yl)methyl]pyrrolidin-3-yl]oxy}-1-oxo-2,3-dihydro-1H-isoindol-2-yl)piperidine-2,6-dione]	544	24.28	34.11	39.9	–	–
CN(C)C(=O)c1ccc2cc(CN3CC[C@H](Oc4ccc5c(c4)CN(C4CCC(=O)NC4=O)C5=O)C3)ccc2n1 (stereo partly drawn) [6-{[(3S)-3-{[2-(2,6-dioxopiperidin-3-yl)-1-oxo-2,3-dihydro-1H-isoindol-5-yl]oxy}pyrrolidin-1-yl]methyl}-N,N-dimethylquinoline-2-carboxamide]	17.5	8.56	29.42	9.05	–	–
CO[C@H]1CCCC[C@@H]1c1ccc2cc(CN3CC[C@H](Oc4ccc5c(c4)CN(C4CCC(=O)NC4=O)C5=O)C3)ccc2n1 (stereo partly drawn) [3-(5-{[(3S)-1-({2-[(1R,2S)-2-methoxycyclohexyl]quinolin-6-yl}methyl)pyrrolidin-3-yl]oxy}-1-oxo-2,3-dihydro-1H-isoindol-2-yl)piperidine-2,6-dione]	–	23.82	–	4.52	7.63	25.39
O=C1CCC(N2Cc3cc(O[C@H]4CCN(Cc5ccc6nc(N7[C@@H]8COC[C@H]7C8)ccc6c5)C4)ccc3C2=O)C(=O)N1 (stereo partly drawn) [3-(5-{[(3S)-1-({2-[(1R,5S)-3-oxa-6-azabicyclo[3.1.1]heptan-6-yl]quinolin-6-yl}methyl)pyrrolidin-3-yl]oxy}-1-oxo-2,3-dihydro-1H-isoindol-2-yl)piperidine-2,6-dione]	11.2	9.645	37	8.62	–	–
COC[C@@H]1CN(Cc2ccc3nc(N4CCN(C(C)=O)CC4)ccc3c2)C[C@H]1Oc1ccc2c(c1)CN([C@H]1CCC(=O)NC1=O)C2=O [(3S)-3-(5-{[(3S,4S)-1-{[2-(4-acetylpiperazin-1-yl)quinolin-6-yl]methyl}-4-(methoxymethyl)pyrrolidin-3-yl]oxy}-1-oxo-2,3-dihydro-1H-isoindol-2-yl)piperidine-2,6-dione]	–	8.785	–	1.41	1.12	27.27
O=C1CCC(N2Cc3cc(O[C@@H]4CN(Cc5ccc6nc(C7CCOCC7)ccc6c5)CC4(F)F)ccc3C2=O)C(=O)N1 (stereo partly drawn) [3-(5-{[(3R)-4,4-difluoro-1-{[2-(oxan-4-yl)quinolin-6-yl]methyl}pyrrolidin-3-yl]oxy}-1-oxo-2,3-dihydro-1H-isoindol-2-yl)piperidine-2,6-dione]	21.3	10.78	27.9	39.1	–	–
O=C1CCC(N2Cc3cc(O[C@H]4CCN(Cc5ccc6nc(N7CC[C@@H](O)C7)ccc6c5)C4)ccc3C2=O)C(=O)N1 (stereo partly drawn) [3-(5-{[(3S)-1-({2-[(3R)-3-hydroxypyrrolidin-1-yl]quinolin-6-yl}methyl)pyrrolidin-3-yl]oxy}-1-oxo-2,3-dihydro-1H-isoindol-2-yl)piperidine-2,6-dione]	20.9	11.85	36	17.5	–	–
CN1C(=O)COc2ccc(CN3CC[C@H](Oc4ccc5c(c4)CN(C4CCC(=O)NC4=O)C5=O)C3)cc21 (stereo partly drawn) [3-(5-{[(3S)-1-[(4-methyl-3-oxo-3,4-dihydro-2H-1,4-benzoxazin-6-yl)methyl]pyrrolidin-3-yl]oxy}-1-oxo-2,3-dihydro-1H-isoindol-2-yl)piperidine-2,6-dione]	> 10000	84.725	56	47.9	–	–
CO[C@H]1CC[C@@](C)(Nc2ccc3cc(CN4CC[C@H](Oc5ccc6c(c5)CN(C5CCC(=O)NC5=O)C6=O)C4)ccc3n2)CC1 (stereo partly drawn) [3-(1-oxo-5-{[(3S)-1-[(2-{[(1s,4s)-4-methoxy-1-methylcyclohexyl]amino}quinolin-6-yl)methyl]pyrrolidin-3-yl]oxy}-2,3-dihydro-1H-isoindol-2-yl)piperidine-2,6-dione]	0.882	8.44	26	3.41	–	–
O=C1CCC(N2Cc3cc(O[C@H]4CCN(Cc5ccc6nc(CO)ccc6c5)C4)ccc3C2=O)C(=O)N1 (stereo partly drawn) [3-(5-{[(3S)-1-{[2-(hydroxymethyl)quinolin-6-yl]methyl}pyrrolidin-3-yl]oxy}-1-oxo-2,3-dihydro-1H-isoindol-2-yl)piperidine-2,6-dione]	54.4	11.84	31.475	9.39	–	–
O=C1CC[C@H](N2Cc3cc(O[C@@H]4CN(Cc5ccc6nc([C@H]7CCOC7)ccc6c5)CC4(F)F)ccc3C2=O)C(=O)N1 [(3S)-3-(5-{[(3R)-4,4-difluoro-1-({2-[(3R)-oxolan-3-yl]quinolin-6-yl}methyl)pyrrolidin-3-yl]oxy}-1-oxo-2,3-dihydro-1H-isoindol-2-yl)piperidine-2,6-dione]	–	8.319	–	11.7	7.63	28.37
O=C1CCC(N2Cc3cc(O[C@H]4CCN(Cc5cc6ccncc6cn5)C4)ccc3C2=O)C(=O)N1 (stereo partly drawn) [3-(5-{[(3S)-1-[(2,7-naphthyridin-3-yl)methyl]pyrrolidin-3-yl]oxy}-1-oxo-2,3-dihydro-1H-isoindol-2-yl)piperidine-2,6-dione]	98.8	6.92	28.095	19.3	–	–
COC[C@H]1CCC[C@@H]1c1ccc2cc(CN3CC[C@H](Oc4ccc5c(c4)CN(C4CCC(=O)NC4=O)C5=O)C3)ccc2n1 (stereo partly drawn) [3-(5-{[(3S)-1-({2-[(1S,2S)-2-(methoxymethyl)cyclopentyl]quinolin-6-yl}methyl)pyrrolidin-3-yl]oxy}-1-oxo-2,3-dihydro-1H-isoindol-2-yl)piperidine-2,6-dione]	–	11.37	–	5.38	11.9	27.68
